These results are taken from patent US12441773B2, “Peptides, hydrogel compositions and methods of use thereof” (Regents of the University of Minnesota, priority 2019, dated 2025).

A short description of series [1]: Hydrogel formation with dilute sodium hydroxide, Crystal Violet overlay. The series is classed as physicochemical. To be noted: 8.3 mg/ml peptide, 16.7 mM NaOH, room temperature 5-10 min. As to the method: FIG. 2: Hydrogel formation of GL13 peptides. Hydrogels are overlaid with Crystal Violet solution. D=DGL13K; R=DGL13R; PEG-L=PEG-LGL13K; pro-D=PEG-pro-DGL13K; E4=PEG-E4-pro-DGL13K; L=LGL13K.
FIG. 8: Hydrogels were formed with 4.2 mg/ml peptide+sodium hydroxide at the concentrations shown. Hydrogels were overlaid with Crystal Violet. Two phases indicate the formation of a hydrogel; Phase mixing indicates the absence of hydrogel. The hydrogels formed at 6.7 mM NaOH were not stable overnight (not shown).
FIG. 9: Hydrogels were formed with 16.7 mM sodium hydroxide and peptides at the concentrations shown. D=DGL13K; L=LGL13K; R=DGL13R. Hydrogels were overlaid with Crystal Violet and imaged within 10 min. Two phases indicate the formation of a hydrogel; Phase mixing indicates the absence of hydrogel.
The antimicrobial peptide GL13K can form a hydrogel when the peptide is reacted with dilute sodium hydroxide. Hydrogels were formed by incubating 8.3 mg/ml peptide with 16.7 mM NaOH and incubating at room temperature for 5-10 min. Hydrogels were overlaid with Crystal Violet. Two phases indicate the formation of a hydrogel; Phase mixing indicates the absence of hydrogel.

Series [2] concerns Pseudomonas aeruginosa. Type of series: cell-based. As to the method: (§1) Standard broth dilution assays were performed to determine the Minimal Inhibitory Concentration (MIC) of each peptide against Pseudomonas aeruginosa (P.a.) or Staphylococcus aureus (S.a.) (Table 2).
The test system of series [3] is Staphylococcus aureus. The series is classed as cell-based. As to the method:
as §1

Series [4] concerns Galleria mellonella (waxmoth larvae). The following applies: in vivo. As to the method: FIG. 6: Galleria mellonella (wax moth larvae) were injected with liquid or hydrogel forms of the listed peptide. Larval survival was monitored for 48 h.
Hydrogels are less toxic in vitro and in vivo than the unmodified peptide. To test toxicity in vivo, hydrogels of DGL13K, PEG-pro-DGL13K (PEG-DGL13K) or liquid PEG-DGL13K were injected into Galleria mellonella (waxmoth larvae) and survival monitored for 48 hrs (FIG. 6). […] Hydrogel of PEG-pro-DGL13K was less toxic than hydrogel of the unmodified DGL13K peptide.

A short description of series [5]: in vitro. To be noted: human, human red blood cells. The series is classed as cell-based. As to the method:
FIG. 7: The in vitro toxicity of soluble DGL13K and PEG-pro-DGL 13K was tested against human Red Blood Cells and hemolysis recorded (% lysis compared to dH2O).
The dose causing lysis of 50% (LD50) of human red blood cells (RBC) was determined and the therapeutic index (Tx Indx) was calculated as LD50/MIC.

The format of series [6] is physicochemical. As to the method:
FIG. 1: Turbidity of peptide solutions at 630 nm. Peptides were suspended in 0.01% acetic acid (our standard peptide solvent), Phosphate-Buffered Saline (PBS), pH 7.4 or dH2O.
LGL13K and DGL13K are not soluble in physiological salt solution (PBS). […] In FIG. 1, solubility is measured as the absence of optical density (OD) due to turbidity at 630 nm.

Series [7] deals with S. aureus. As to the kind of experiment: Peptide hydrogels placed on S. aureus plated on agar. The series is classed as cell-based, Staphylococcus aureus. To be noted: hydrogel on agar plate. As to the method:
FIG. 3. Peptide hydrogels on S. aureus.
(§2) To test antibacterial activity, S. aureus (FIG. 3) or P. aeruginosa (FIG. 4) were plated on agar and peptide hydrogels placed on top of the bacteria. The plates were incubated to allow a bacterial lawn to grow. […] The larger inhibition zone seen for DGL13R is consistent with a lack of hydrogel formation, which allowed the peptide solution to spread on the plate.

Series [8] has as its system P. aeruginosa. Description: Peptide hydrogels placed on P. aeruginosa plated on agar. The series is classed as cell-based, Pseudomonas aeruginosa. To be noted: hydrogel on agar plate. As to the method:
FIG. 4: Peptide hydrogels on P. aeruginosa Ac.Ac.=0.01% acetic acid mixed with NaOH (buffer control).
as §2

For series [9], the system named is mouse skin burn. Description: Mouse burn wound healing model. The series is classed as in vivo. To be noted: seven days after the burn.

Where a SMILES comes first, the peptide text is derived from it. [ ]: non-standard residue; d: D form. The star is where a group is joined. MeOCH2CH2OCH2CO = COCCOCC(=O)*; PEG = not defined here; PEG1 = NCCOCCC(=O)O

As usually defined, the HC50 is the concentration giving 50% haemolysis.

As to polymyxin B [reference compound], in series [1], the Hydrogel formation result is “does not form hydrogel”.

`CC[C@H](C)[C@H](NC(=O)[C@H](CCCCN)NC(=O)CNC(=O)COCCOC)C(=O)N[C@H](C(=O)N[C@@H](CCCCN)C(=O)N[C@@H](CC(C)C)C(=O)N[C@@H](CCCCN)C(=O)N[C@@H](C)C(=O)N[C@@H](CO)C(=O)N[C@@H](CC(C)C)C(=O)N[C@@H](CCCCN)C(=O)N[C@@H](CC(C)C)C(=O)N[C@@H](CC(C)C)C(N)=O)[C@@H](C)CC` [PEG-LGL13K] (MeOCH2CH2OCH2CO-GKIIKLKASLKLL-NH2; N-terminus assumed): the Hydrogel formation result in [1] is on record as “formed hydrogels”. Also, the “Minimal Inhibitory Concentration P.a.” value in series [2] worked out at 20.8 µg/mL. Also, in series [3], the “Minimal Inhibitory Concentration S.a.” value was 83 µg/mL.

For `CC[C@@H](C)[C@@H](NC(=O)[C@@H](CCCCN)NC(=O)CNC(=O)[C@@H](C)NC(=O)CNC(=O)CNC(=O)[C@@H](CC(C)C)NC(=O)CCOCCN)C(=O)N[C@@H](C(=O)N[C@H](CCCCN)C(=O)N[C@H](CC(C)C)C(=O)N[C@H](CCCCN)C(=O)N[C@H](C)C(=O)N[C@H](CO)C(=O)N[C@H](CC(C)C)C(=O)N[C@H](CCCCN)C(=O)N[C@H](CC(C)C)C(=O)N[C@H](CC(C)C)C(N)=O)[C@H](C)CC` [PEG-pro-DGL13K, PEG-d-Leu-Gly-Gly-d-Ala-Gly-d-Lys-d-Ile-d-Ile-d-Lys-d-Leu-d-Lys-d-Ala-d-Ser-d-Leu-d-Lys-d-Leu-d-Leu-CONH2] (H-[PEG1][dL]GG[dA]G[dK][dI][dI][dK][dL][dK][dA][dS][dL][dK][dL][dL]-NH2), in series [4], the “Toxicity of hydrogel compared with hydrogel of unmodified DGL13K” value is reported as “less toxic”. Further, the “Minimal Inhibitory Concentration P.a.” value in series [2] stood at 10.4 µg/mL. The “Minimal Inhibitory Concentration S.a.” value in series [3] came out at 5.2 µg/mL. Besides, in series [5], the HC50 is 1000 µg/mL.

For H-GKIIKLKASLKLL-NH2 [LGL13K], the Hydrogel formation result in series [1] is listed as “formed hydrogels”. In series [6], the “Solubility in physiological salt solution (PBS)” value is “not soluble”. For the same compound, in series [2], the “Minimal Inhibitory Concentration P.a.” value is 10.4 µg/mL. In addition, the “Minimal Inhibitory Concentration S.a.” value in series [3] is 20.8 µg/mL. Moreover, the “Growth of S. aureus lawn under peptide hydrogel” value in series [7] is reported as “prevented the growth”. In series [5], the HC50 is 188 µg/mL.

Consider `CC[C@@H](C)[C@@H](NC(=O)[C@@H](CCCCN)NC(=O)CNC(=O)CCOCCN)C(=O)N[C@@H](C(=O)N[C@H](CCCCN)C(=O)N[C@H](CC(C)C)C(=O)N[C@H](CCCCN)C(=O)N[C@H](C)C(=O)N[C@H](CO)C(=O)N[C@H](CC(C)C)C(=O)N[C@H](CCCCN)C(=O)N[C@H](CC(C)C)C(=O)N[C@H](CC(C)C)C(N)=O)[C@H](C)CC` [PEG-DGL13K, PEG-Gly-d-Lys-d-Ile-d-Ile-d-Lys-d-Leu-d-Lys-d-Ala-d-Ser-d-Leu-d-Lys-d-Leu-d-Leu-CONH2] (H-[PEG1]G[dK][dI][dI][dK][dL][dK][dA][dS][dL][dK][dL][dL]-NH2), for which, in series [6], the “Solubility in physiological salt solution (PBS)” value is on record as “soluble in PBS”. Besides, the “Toxicity of hydrogel compared with hydrogel of unmodified DGL13K” value in series [4] is reported as “less toxic”. The “Minimal Inhibitory Concentration P.a.” value in [2] was in the range of 5 to 10.4 µg/mL.

Turning to “PEG-d-Glu-d-Glu-d-Glu-d-Glu-d-Leu-Gly-Gly-d-Ala-Gly-d-Lys-d-Ile-d-Ile-d-Lys-d-Leu-d-Lys-d-Ala-d-Ser-d-Leu-d-Lys-d-Leu-d-Leu-CONH2 ({PEG}-[dE][dE][dE][dE][dL]GG[dA]G[dK][dI][dI][dK][dL][dK][dA][dS][dL][dK][dL][dL]-NH2; reading uncertain) [PEG-E4-pro-DGL13K]”, in series [1], the Hydrogel formation result was “did not form hydrogels”.

In the case of `CC[C@@H](C)[C@@H](NC(=O)[C@@H](CCCCN)NC(=O)CN)C(=O)N[C@@H](C(=O)N[C@H](CCCCN)C(=O)N[C@H](CC(C)C)C(=O)N[C@H](CCCCN)C(=O)N[C@H](C)C(=O)N[C@H](CO)C(=O)N[C@H](CC(C)C)C(=O)N[C@H](CCCCN)C(=O)N[C@H](CC(C)C)C(=O)N[C@H](CC(C)C)C(N)=O)[C@H](C)CC` [DGL13K, NH2-Gly-d-Lys-d-Ile-d-Ile-d-Lys-d-Leu-d-Lys-d-Ala-d-Ser-d-Leu-d-Lys-d-Leu-d-Leu-CONH2] (H-G[dK][dI][dI][dK][dL][dK][dA][dS][dL][dK][dL][dL]-NH2), the “Growth of P. aeruginosa lawn under peptide hydrogel” value in series [8] is “effectively prevented the growth”. The Hydrogel formation entry in series [1] is given as “formed hydrogels”. The “Improved healing compared to SSD-treated mice” value in [9] is 48%. The “Improved healing compared to the control mice” value in series [9] (peptide in solution or hydrogel) is 36%. Also, the “Minimal Inhibitory Concentration P.a.” value in series [2] came out at 5.2 µg/mL. In addition, in [3], the “Minimal Inhibitory Concentration S.a.” value fell in the range of 1.3 to 2.6 µg/mL. Further, the “Growth of S. aureus lawn under peptide hydrogel” value in series [7] is reported as “prevented the growth”. Moreover, the HC50 in series [5] was 500 µg/mL.

With `CC[C@@H](C)[C@@H](NC(=O)[C@@H](CCCNC(=N)N)NC(=O)CN)C(=O)N[C@@H](C(=O)N[C@H](CCCNC(=N)N)C(=O)N[C@H](CC(C)C)C(=O)N[C@H](CCCNC(=N)N)C(=O)N[C@H](C)C(=O)N[C@H](CO)C(=O)N[C@H](CC(C)C)C(=O)N[C@H](CCCNC(=N)N)C(=O)N[C@H](CC(C)C)C(=O)N[C@H](CC(C)C)C(N)=O)[C@H](C)CC` [DGL13R, NH2-Gly-d-Arg-d-Ile-d-Ile-d-Arg-d-Leu-d-Arg-d-Ala-d-Ser-d-Leu-d-Arg-d-Leu-d-Leu-CONH2] (H-G[dR][dI][dI][dR][dL][dR][dA][dS][dL][dR][dL][dL]-NH2), the “Growth of P. aeruginosa lawn under peptide hydrogel” value in series [8] is “effectively prevented the growth”. Moreover, in [1], the Hydrogel formation result is “did not form hydrogels”. In addition, the “Solubility in physiological salt solution (PBS)” value in series [6] was “increased solubility”. Also, in series [2], the “Minimal Inhibitory Concentration P.a.” value amounted to 2.6 µg/mL. Also, the “Minimal Inhibitory Concentration S.a.” value in series [3] was in the range of 1.3 to 2.6 µg/mL. For the same compound, the HC50 in series [5] amounted to 500 µg/mL.
